Experimental findings from patent US20140349943A1, “TOPICAL FORMULATIONS OF CHEMERIN C15 PEPTIDES FOR THE TREATMENT OF DERMATOLOGICAL CONDITIONS” (priority 2011, published 2014) are described below.

Structures are written as SMILES. Several values for one entry are separate records, joined by “and”; a condition that tells them apart may be missing. Equal values may be shown once. Peptide text beside a SMILES is read from it.

The nature of data set [1]: Stability of C15 in homogenates of frozen and fresh human skin. The class given is in vitro ADME. Here is the method: An initial study was performed comparing stability of human C15 versus Mouse C15. Homogenates of frozen and fresh human skin were prepared to evaluate the degradation of C15 in skin. Frozen or fresh human skin were separately minced and homogenized in 3 ml water and the supernatant isolated. Supernatant was mixed with solutions of mouse or human C15 to yield a 0.5 mg/ml C15 solution. Each solution was incubated at 37° C. and samples were taken at 0, 1, 2 and 24 hours for analysis of C15 (FIG. 3).

Data set [2] relates to K5.Stat3C recombinant mice. Kind of data set: K5.Stat3C mouse model of psoriasis (TPA induced lesions). As to conditions: expected. It counts as in vivo. Here is the method:
In this example, the therapeutic activity of a human chemerin C15 peptide is tested in a mouse model of psoriasis. K5.Stat3C recombinant mice resemble human psoriasis based on clinical, histological, immunophenotypic, and biochemical criteria used to evaluate animal models of psoriasis. The K5.Stat3C mice constitutively express activated […] in keritinocytes and epidermal hyperplasia upon stimulation with 12-0-tetradecanoylphorbol-13-acetate (TPA) topical treatment.
In an exemplary protocol, mice are treated topically on the ear with TPA (e.g. 3.4 nmol TPA in acetone) or acetone control to induce skin lesions 3 times per week for 4-8 weeks. Real-time PCR in skin samples is used to confirm upregulation of cytokine expression, including IL-23, IL012, TNF-α, IL-β, and/or IL-6. Following induction of skin lesions, formulations comprising the human chemerin C15 peptide or vehicle control are applied topically to the skin lesions daily for 6-12 days. Improvement in the lesions is assessed daily.

A further data set relates to mice. Nature of the data set: Contact hypersensitivity assay. The class given is in vivo, mouse. As to conditions: TNCB hapten; ear thickness; expected. Here is the method: In this example, the therapeutic activity of a human chemerin C15 peptide is tested in a contact hypersensitivity assay, which is an in vivo assay of cell-mediated immune function and a model for human allergic contact dermatitis. In this assay, epidermal cells are exposed to exogenous haptens which results in a delayed-type hypersensitive reaction that can be measured and quantified. The Langerhans cell, which is an Ia^+, bone marrow-derived, epidermal cell, initiates sensitization to haptens by presenting antigens to CD4-bearing T lymphocytes, which, in turn, secrete lymphokines and recruit other cells to the site of the reaction.
Contact hypersensitivity consists of the afferent or initial sensitizing phase, and the efferent or elicitation phase. During the efferent phase, when epidermal cells encounter a particular antigen to which they have previously been exposed, localized swelling occurs (in rodents) and in humans results in eczema of the skin.
In an exemplary protocol, mice are shaved and the skin of their abdomens exposed to a hapten. After 6 days (the afferent phase), the baseline ear thickness is measured prior to initiation of the efferent phase. Finally, the ear is treated epicutaneously with the hapten solution and ear thickness is measured at approximately 24 hr. […]

Data set [3] in a line: Franz diffusion cell skin penetration, C15 ointment. It counts as in vitro ADME, human. Here is the method: The objective of the study was to determine whether human chemerin C15 peptide would diffuse through in vitro human skin maintained under flow-through conditions in Franz cells where the C15 peptide is administered as an ointment. Human chemerin C15 peptide was prepared as an ointment as described in Example 4. A 10% solution of the C15 ointment was prepare immediately prior to skin application. […] human skin obtained from abdominoplasty was maintained in tissue media and antibiotics and used within 3 days.
A standard Franz diffusion cell (LGA, Berkeley, Calif.) was used under static conditions (n=3). Approximately 200 μl of the 10% ointment solution was transferred to the surface of the skin and distributed on the surface by spatula. A thin liner was then applied for light pressure to the skin surface for 5 min after which the diffusion cell was occluded and maintained for 24 hours. After this time, the ointment was recovered by scraping a spatula over the skin surface and transferring the retained material to a 50/50 water-chloroform solution. The epidermis and dermis were then separated by heat and the epidermis extracted with a 50/50 water-chloroform solution. The epidermis was then transferred to a second tube and homogenized in PBS containing 0.1% protease inhibitor. The dermis was minced and homogenized in PBS containing 0.1% protease inhibitor. The receptor fluid was recovered and concentrated under vacuum. Ointment without C15 was applied to skin and the skin sampled in the same manner as a control (n=2).
C15 recovery from the dosing material, epidermis, and receptor fluid was determined by HPLC. C15 concentration in the dermis was determine by LC/MS. The skin surface and epidermis recoveries and epidermis homogenate samples were analyzed using the following reversed phase HPLC conditions:
The dermis samples were analyzed using the following LC/MS/MS conditions: […]

In data set [4] the test system is IFNγ/LPS stimulated human macrophages. Nature of the data set: Cytokine secretion by IFNγ/LPS stimulated human macrophages (Luminex). The class given is cell-based. The following applies: 16 hours post-stimulation.
Where [5] appears, read: after 24 hours, 37° C., 0.5 mg/ml.
Where [6] appears, read: ointment, 24 hours, listed as C15.

Consider `C[C@H](N)C(=O)NCC(=O)N[C@@H](CCC(=O)O)C(=O)N[C@@H](CC(=O)O)C(=O)N1CCC[C@H]1C(=O)N[C@@H](Cc1c[nH]cn1)C(=O)N[C@@H](CO)C(=O)N[C@@H](Cc1ccccc1)C(=O)N[C@@H](Cc1ccc(O)cc1)C(=O)N[C@@H](Cc1ccccc1)C(=O)N1CCC[C@H]1C(=O)NCC(=O)N[C@@H](CCC(N)=O)C(=O)N[C@@H](Cc1ccccc1)C(=O)N[C@@H](C)C(=O)O` [C15 (human)] (H-AGEDPHSFYFPGQFA-OH; N-terminus and C-terminus assumed), for which, in data set [1] (setting [5]), the “C15 degradation in homogenate from fresh skin” value was found to be 98% and the “C15 degradation in homogenate from frozen skin” value stood at 25%. Moreover, the “relative stability in skin homogenate” value in data set [1] (human vs mouse C15) is on record as “more stable than mouse C15”. For the same compound, in data set [2] (topical daily for 6-12 days), the “cytokine expression in the psoriatic lesions” value is recorded as “decreased cytokine expression”. The “psoriatic phenotype of the epidermis” value in data set [2] (visual inspection and histological examination) was “improvement in the psoriatic phenotype of the epidermis”. Besides, the “allergic response (contact hypersensitivity)” value in the data set on mice is recorded as “prevention, suppression and/or treatment of the allergic response”. Also, the “[C15] in Receptor Fluid (5 mL)” value in data set [3] (Ointment, fresh human skin, after 24 hrs) was less than 10 nM. The recovery at 24 h in data set [3] (female, human, ointment, 24 hours, mass balance, read-out: Total % recovery) came out at 104%. Also, the “epidermis and dermis combined, share of the applied dose” value in data set [3] (ointment) is reported as less than 1%. The “Receptor fluid, C15” value in data set [3] (ointment, 24 hours, HPLC LLQ 150 ng/ml) is “<LLQ”. Moreover, in data set [3] (setting [6]), the “Dermis homogenate, % of applied” value was 0.00% and 0.02% and 0.12%; the “Epidermis, % of applied” value was 70.2% and 64.1% and 71.2%; the “Epidermis, C15” value was 1.53 mg and 2.25 mg and 1.45 mg; the “Skin Surface, % of applied” value is 33.6% and 33.3% and 40.6%. Also, in data set [3] (setting [6]), the “Skin Surface, C15 recovered” value was 0.74 mg and 1.17 mg and 0.83 mg. The Total % recovery in data set [3] (ointment, 24 hours, mass balance, listed as C15) was 97.4% and 111.8%. In addition, in data set [4] (1 pM), the “inhibition of human macrophage secretion of IL-1β” value was “approximately 45%” and the “inhibition of human macrophage secretion of RANTES” value was approximately 65%. In addition, in data set [4], the “inhibition of human macrophage secretion of IL-12p40” value was “approximately 55%”.
